# Where “and” joins values, the source holds several entries; their conditions need not be identical. Equal entries are not always repeated. Where two headings read alike, the source gives them in different places.
# Key:
# [1] = biological target: T1, récepteurs S2-bronchiques (Cavia porcellus, UniProt Q8K4Z4); experiment: Inhibition of the protection given by isoprenaline against serotonin bronchospasm (Konzett and Roessler, modified by Halpern); format: in vivo, cobaye; details: guinea pig, i.v. 250 µg/kg; for inhibition at 0.25 mg/kg: iv, number in parentheses
# T1 construct: a été étudiée chez le cobaye, à raison de cinq animaux par essai; from tissue; host or cells: whole guinea pig (bronchi, in vivo)
# T1 sequence (Q8K4Z4 whole entry): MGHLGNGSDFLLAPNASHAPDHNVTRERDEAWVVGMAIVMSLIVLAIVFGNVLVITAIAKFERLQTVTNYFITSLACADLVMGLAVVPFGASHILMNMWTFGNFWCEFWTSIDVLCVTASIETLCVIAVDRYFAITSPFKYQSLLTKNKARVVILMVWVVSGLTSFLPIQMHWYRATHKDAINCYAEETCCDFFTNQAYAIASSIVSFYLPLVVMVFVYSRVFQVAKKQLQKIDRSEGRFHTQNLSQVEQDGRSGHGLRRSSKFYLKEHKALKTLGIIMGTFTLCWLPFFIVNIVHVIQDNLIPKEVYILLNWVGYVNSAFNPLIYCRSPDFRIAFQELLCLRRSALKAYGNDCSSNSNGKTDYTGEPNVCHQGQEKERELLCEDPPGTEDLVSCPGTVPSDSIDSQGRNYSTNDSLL
# Protocol: L'action β2-adrénolytique au niveau bronchique a été étudiée chez le cobaye, à raison de cinq animaux par essai, en recherchant l'inhibition de la protection exercée par l'isoprénaline vis-à-vis du bronchospasme à la sérotonine, selon la méthode de Konzett et Roessler (Arch. Exper. Pathol. Pharmakol., 1940, 195, 71) modifiée par Halpern.
# Les composés sont administrés par voie i.v. à la dose de 250 µg/kg.
# récepteurs β1-cardiaques = biological target: T2, récepteurs β1-cardiaques (Cavia porcellus, UniProt H0W3H1); experiment: Antagonism of the effects of isoprenaline on the isolated guinea-pig atrium (method of Giudicelli, Schmitt and Boissier); parameters: species or system cobaye; details: for Effet inotrope + de l'isoprénaline Concentration active Après produit: isoprenaline concentration giving a 10 mm increase of the trace amplitude; for Effet chronotrope + de l'isoprénaline Concentration active Après produit: isoprenaline concentration giving an increase of 30 beats per min
# T2 construct: sur l'oreillette isolée de cobaye; from tissue; host or cells: isolated guinea-pig atrium
# T2 sequence (H0W3H1 1-470): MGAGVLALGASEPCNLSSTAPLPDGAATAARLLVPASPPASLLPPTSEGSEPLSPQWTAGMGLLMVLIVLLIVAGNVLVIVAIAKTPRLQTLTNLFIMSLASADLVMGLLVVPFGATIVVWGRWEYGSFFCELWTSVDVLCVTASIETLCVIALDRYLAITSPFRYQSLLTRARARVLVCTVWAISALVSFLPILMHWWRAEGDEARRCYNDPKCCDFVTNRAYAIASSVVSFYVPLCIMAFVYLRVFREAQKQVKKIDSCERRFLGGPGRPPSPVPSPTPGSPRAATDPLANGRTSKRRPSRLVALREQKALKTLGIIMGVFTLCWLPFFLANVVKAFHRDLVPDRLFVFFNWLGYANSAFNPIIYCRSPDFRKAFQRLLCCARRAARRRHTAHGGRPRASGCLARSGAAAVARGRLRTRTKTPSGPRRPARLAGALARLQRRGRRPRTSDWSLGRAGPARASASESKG
# From the text: L'activité 8-lytique a été recherchée au niveau des récepteurs β1-cardiaques en déterminant l'antagonisme des effets de l'isoprénaline sur l'oreillette isolée de cobaye, selon la méthode de Giudicelli, Schmitt et Boissier (J. Pharmacol. Exper. Thérapeut., 1969, 168, 116). […]
# Afin de ne pas surcharger inutilement les tableaux suivants, seuls les résultats correspondant au composé n° 2 sont indiqués.
# [2] = dose of product 1.10^-10 mole/cm^3
# [3] = dose of product 1.10^-10 mole/cm^3, ratio of active concentrations after and before addition of product
# [4] = dose of product 5.10^-10 mole/cm^3
smiles,measurement,setting,value
CC(C)(C)NCC(O)COc1c(C#N)sc2ccccc12 (stereo not drawn) [compound 2],"Moyenne de l'amplitude Après administration, au bout de 1 min","[1]; 1 min after administration, five animals","20,4 ± 1,4"
same,"Moyenne de l'amplitude Après administration, au bout de 8 min","[1]; 8 min after administration, five animals","3,8 ± 2,4"
same,"Moyenne de l'amplitude Après administration, au bout de 16 min","[1]; 16 min after administration, five animals","0,6 ± 0,6"
same,"Moyenne de l'amplitude Après administration, au bout de 30 min","[1]; 30 min after administration, five animals",0
same,"Moyenne de l'amplitude Après administration, au bout de 60 min","[1]; 60 min after administration, five animals",0
same,blocage des récepteurs S2-bronchiques,"[1]; compared with propranolol, summary of Table III",très fugace
same,inhibition at 0.25 mg/kg,"[1]; 1 min after administration, read-out: pourcentages d'inhibition de l'isoprénaline, 1 min (converted)",82%
same,inhibition at 0.25 mg/kg,"[1]; 8 min after administration, read-out: pourcentages d'inhibition de l'isoprénaline, 8 min (converted)",15%
same,inhibition at 0.25 mg/kg,"[1]; 16 min after administration, read-out: pourcentages d'inhibition de l'isoprénaline, 16 min (converted)",2%
same,activité β1-stimulante,"récepteurs β1-cardiaques; at low concentrations, compared with propranolol, summary of Table II",proche de celle du propranolol
same,Effet inotrope + de l'isoprénaline Concentration active Après produit,récepteurs β1-cardiaques; [2],"7,6.10^-8"
same,Effet chronotrope + de l'isoprénaline Concentration active Après produit,récepteurs β1-cardiaques; [2],"3,8.10^-8"
same,Effet chronotrope + de l'isoprénaline Index d'activité,récepteurs β1-cardiaques; [3],7
same,Effet inotrope + de l'isoprénaline Index d'activité,récepteurs β1-cardiaques; [3],"6,5"
same,Effet chronotrope + de l'isoprénaline Concentration active Après produit,récepteurs β1-cardiaques; [4],"1,5.10^-7 and 1,8.10^-7"
same,antagonisme des effets de l'isoprénaline (effet inotrope + et effet chronotrope +),"récepteurs β1-cardiaques; isolated atrium, single concentration 1.10^-7 g/cm^3, five preparations per product, given as maleate",suffisamment efficace
"CC(C)NCC(O)COc1cccc2ccccc12 (stereo not drawn) [propranolol, isopropylamino-1 (naphtyl-1 oxy)-3 propanol-2, reference compound]",Effet inotrope + de l'isoprénaline Concentration active Après produit,récepteurs β1-cardiaques; [4],"5,8.10^-8"
same,Effet chronotrope + de l'isoprénaline Concentration active Après produit,récepteurs β1-cardiaques; [4],"1,8.10^-7"

# Source: patent publication EP0020266A1, “Derivatives of cyano-2-hydroxy-3-benzofurane and benzo(b)thiophene, their preparation and their use in therapy” (ANVAR Agence Nationale de Valorisation de la Recherche, priority 1979, dated 1980)
